The values that follow come from article PMC4300553, “A dynamically coupled allosteric network underlies binding cooperativity in Src kinase” (Nature Communications, 2015).

Assay [1] addresses T1, Src kinase domain (Gallus gallus, UniProt P00523).
T1 construct: chicken c-Src (residues 251–533); made in house
Description: Isothermal titration calorimetry, nucleotide binding to Src kinase domain. Set-up: species or system chicken. The conditions noted are these: for Kd: isothermal titration calorimetry, 25 °C, 20 mM Tris (pH 8.0), 250 mM NaCl, 10 mM MgCl2; for fold reduction of nucleotide Kd by phosphorylated peptide (pRs1): presence of pRs1. As for the experimental part: (§1) Thermodynamic binding parameters for the binding of nucleotides to the Src kinase domain were obtained through isothermal titration calorimetry as published. All experiments were run in a VP-ITC instrument (Microcal) at 25 °C. Proteins were exchanged into 20 mM Tris (pH 8.0), 250 mM NaCl, 10 mM MgCl2 on PD-10 buffer exchange columns (GE Life-science) and diluted to 50–100 μM. Nucleotide stocks (Sigma) were made in buffer to final concentrations between 1 and 3 mM. The heat of binding was measured over the injection of 295 μl of drug in 10-μl steps spaced 300 s apart. Data were fit to a one binding site model using the Origin software package (Microcal). Error bars represent the s.e. of the mean of three independent runs. Representative enthalpograms are shown in Supplementary Fig. 7.
Supplementary Figure 7. Isothermal Titration Calorimetry of Src Binding to AMP-PNP and
ADP (A) Sample titration curve for AMP-PNP binding to the Src kinase domain.(B) Sample
titration curve of ADP binding to the Src kinase domain. All experiments were run in a VP-ITC
instrument (Micro-cal) at 25 °C. Proteins were exchanged into 20 mM Tris (pH 8.0), 250 mM
NaCl, 10 mM MgCl2 on PD-10 buffer exchange columns (GE Life-science), and diluted to 50–
(§2) (1 picture or pasted object on this page, not shown here)
In general terms: Isothermal titration calorimetry measures the heat released or taken up as one component is titrated into another.

Assay [2] concerns the target T1, Src kinase domain. Description: Fluorescence anisotropy binding assay, substrate peptide to Src kinase domain (wild type). Also noted: species or system chicken. The conditions noted are these: for binding cooperativity of substrates and products (summary): ATP + substrate peptide, ADP + pRS1, Src kinase; for change of Kd of substrate peptide by AMP-PNP: increasing AMP-PNP concentration; for cooperativity of peptide and AMP-PNP binding: Kd at various concentrations of AMP-PNP, 1 μM labelled peptide. (In fluorescence polarisation assays a small probe gives low polarisation when free and higher when bound to something large.)
Description: After a 1-min equilibration, the increase in the fluorescence anisotropy of the fluorescently labelled ligand was recorded using a Fluoromax 4 (Horiba) and fitted against a quadratic binding equation in Kaleidagraph (Synergy Software) to yield the Kd. Error bars represent the s.e. of the mean of the independent runs.

In the next assay the test system is kinase. The conditions noted are these: high Mg2+ concentration; cited from earlier work. From the text: Mg^2+ ions accompany ATP and ADP binding in protein kinases, mediating interactions between phosphate groups and conserved Asp and Asn residues (Asp404 and Asn391 in Src). On the other hand, in some kinase-ADP co-crystal structures, Mg^2+ ions are missing. In such cases, the Asp residue of the DFG motif (Asp404 in Src) is almost certainly protonated to prevent negative charge repulsion from the ADP phosphate group only 3.2 Å away (for example, PDB entry 1JBP (ref. [16])).

The test system of the next assay is Src W260A. Description: Kinase activity assay, Src W260A. The conditions noted are these: W260A versus wild type. Type of assay: biochemical, chicken.
Another assay deals with Ser/Thr kinase PKA. The conditions noted are these: cited from earlier work. From the text:
The putative allosteric network discussed above may manifest itself in the form of cooperativity between ATP and substrate binding. […] Higher concentrations of AMP-PNP, a non-hydrolysable ATP ana ...

A further assay has as its system Src T338I. The conditions noted are these: T338I versus wild type.
The target of the next assay is T2, Abl kinase domain (Homo sapiens, UniProt P00519).
T2 construct: human c-Abl (residues 229–512); made in house
T2 sequence (P00519 229-512): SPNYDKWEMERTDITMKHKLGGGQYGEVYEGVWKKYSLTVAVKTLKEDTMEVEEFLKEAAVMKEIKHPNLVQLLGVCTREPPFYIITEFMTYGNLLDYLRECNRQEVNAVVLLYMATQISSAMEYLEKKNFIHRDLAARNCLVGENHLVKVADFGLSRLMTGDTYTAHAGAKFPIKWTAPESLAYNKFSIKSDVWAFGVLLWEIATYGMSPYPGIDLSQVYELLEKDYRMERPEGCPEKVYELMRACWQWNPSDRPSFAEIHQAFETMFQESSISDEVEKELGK
The experiment in a line: Kinase activity assay, Abl kinase domain. The format is biochemical. The conditions noted are these: increasing substrate-peptide (RS1) concentration; Fig. 3b.

Assay [3] concerns the target T1, Src kinase domain. The experiment in a line: Kinase activity assay (continuous spectrophotometric), Src kinase domain. The conditions noted are these: for Km: 25 nM Src kinase domain, mean ± s.e.m., triplicate. The format is biochemical, chicken.
Description: (§3) Mutations were introduced into the chicken c-Src kinase domain by site-directed mutagenesis and verified by DNA sequencing.
(§4) For the continuous spectrophotometric assay[64], 12.5–800 μM ATP Src-optimal substrate peptide ([sequence])[34] was combined with 12.5–800 μM ATP. Concentrations of Src kinase domain used for these assays were 25 nM. The initial velocities were plotted and fit to the Michaelis–Menten equation in Kaleidagraph (Synergy Software) to determine Km.
The next assay deals with Src D404N. Description: Nucleotide binding to Src D404N. The conditions noted are these: asparagine incapable of chelating Mg2+; Supplementary Fig. 10. Set-up: species or system chicken. As for the experimental part:
as §1
Supplementary Figure 10. Mutations to the allosteric network produce biochemical phenotypes. (A) Location of residues involved in the allosteric network (colored beads). (B) Representative conformations of Src wt and D404N. As shown, Asn404 mimics protonated Asp404 by forming hydrogen bonds with Asp386, and affects the conformation of Arg388, Trp428, and other residues involved in the substrate binding. (C) The effects of D404N mutation to three key residue-residue interaction of the putative allosteric network. (D) Dissociation […]
substrate binding. […]

A further assay deals with Src 3-domain construct. Description: Cooperativity in Src three-domain construct (KM and KD). The format is binding. The conditions noted are these: Supplementary Fig. 6.
Text: Domain Kinase. (A) The effect of ATP concentration on substrate KM for Src kinase domain and 3-domain construct. (B) The effect of ATP concentration on substrate KM for WT and T338I mutant Src 3-domain construct (C) The effect of peptide concentration on ATP KM for Src kinase domain and 3-domain construct. (D) The effect of substrate concentration on ATP KM for WT and T338I mutant Src 3-domain construct. (E) Dissociation constants Src kinase domain and 3-domain constructs at increasing AMP-PNP concentration. (F) Dissociation constants for WT and T338I mutant Src 3-domain construct. KM values were determined in a kinase activity assay. KD values for the substrate peptides were determined using fluorescence anisotropy at 1 µM labeled peptide. All experiments were performed in triplicate, and data represent mean values ± s.e.m.
as §2

Assay [4] has as its target T338I mutant Src 3-domain construct (Gallus gallus, UniProt P00523, T338I). Description: Km of ATP and substrate peptide, T338I mutant Src 3-domain construct. The format is biochemical. The conditions noted are these: higher Km for ATP, lower Km for substrate peptide.
In another assay the target is T3, Hck kinase domain (Homo sapiens, UniProt P08631).
T3 construct: human Hck (residues 166–445); made in house
T3 sequence (P08631 247-526): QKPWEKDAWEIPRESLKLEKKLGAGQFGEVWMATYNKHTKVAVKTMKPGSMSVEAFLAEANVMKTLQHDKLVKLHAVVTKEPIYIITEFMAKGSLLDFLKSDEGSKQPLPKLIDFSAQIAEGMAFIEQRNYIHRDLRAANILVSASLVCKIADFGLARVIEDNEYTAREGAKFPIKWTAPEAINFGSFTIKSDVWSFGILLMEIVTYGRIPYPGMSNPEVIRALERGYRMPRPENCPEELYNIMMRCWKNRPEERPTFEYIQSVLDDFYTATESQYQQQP
The experiment in a line: Kinase activity assay, Hck kinase domain. Type of assay: biochemical. The conditions noted are these: increasing substrate-peptide (RS1) concentration; Fig. 3b.

The mark [5] stands for this setting: 100 mM Tris, pH 8.0, 10 mM MgCl2, 25 °C.

“Also recorded” adds a separate entry of the source. Read-outs that look alike come from different tables or passages of the source.

Description for Abl kinase domain: as §3, §4
Description for Hck kinase domain: as §3, §4
Description for Src W260A: as §3, §4

On to `Nc1ncnc2c1ncn2[C@@H]1O[C@H](COP(=O)(O)OP(=O)(O)O)[C@@H](O)[C@H]1O` [ADP], for which, on Src kinase domain [1], the dissociation constant Kd lay in the range of 45 to 100 µM and the “fold reduction of nucleotide Kd by phosphorylated peptide (pRs1)” value is listed as “twofold”. The “binding cooperativity of substrates and products (summary)” value on Src kinase domain [2] is recorded as “positive cooperativity”. For the same compound, the “ADP release in kinase catalytic cycle” value with kinase is “slower at high Mg^2+ concentration”.

As for `Nc1ncnc2c1ncn2[C@@H]1O[C@H](COP(=O)(O)OP(=O)(O)NP(=O)(O)O)[C@@H](O)[C@H]1O` [AMP-PNP], on Src kinase domain [1], the Kd was 45 to 100 µM and the “fold reduction of nucleotide Kd by phosphorylated peptide (pRs1)” value is recorded as “three”.

Regarding `Nc1ncnc2c1ncn2[C@@H]1O[C@H](COP(=O)(O)OP(=O)(O)OP(=O)(O)O)[C@@H](O)[C@H]1O` [ATP], the “Km of W260A for ATP relative to wild type” value in the assay with Src W260A is “two- to fivefold lower”. In the assay with Ser/Thr kinase PKA, the “cooperativity between ATP and substrate binding, PKA” value is “positive cooperativity”. The “Km of T338I for ATP relative to wild type” value in the assay with Src T338I is “twofold higher”. The “ATP Km versus substrate-peptide concentration, Abl” value on Abl kinase domain is given as “increases with increasing substrate-peptide concentration”. Besides, the Km at Src kinase domain [3] (50 μM substrate peptide, read-out: Km for ATP at 50 μM substrate peptide) was 54 ± 22 µM; at Src kinase domain [3] (800 μM substrate peptide, read-out: Km for ATP at 800 μM substrate peptide), 202 ± 21 µM. The “ATP Km versus substrate-peptide concentration, Src” value on Src kinase domain [3] (increasing substrate-peptide (RS1) concentration, Fig. 3b) was “increases with increasing substrate-peptide concentration”. Also, in the assay on Src D404N, the “ATP binding to Src D404N” value is reported as “does not bind ATP favourably”. On Src kinase domain [2], the “binding cooperativity of substrates and products (summary)” value is on record as “negative cooperativity”. For the same compound, the “Mg2+ dependence of binding and cooperativity” value at Src kinase domain [2] (presence vs absence of Mg2+, ionic strength adjusted to 40 mM with NaCl, Supplementary Fig. 9) was “disrupts ATP binding; also recorded: requires the presence of Mg^2+”. Moreover, the “cooperativity of ATP and substrate binding, three-domain construct” value in the assay on Src 3-domain construct is “negative cooperativity is present”. Moreover, the “Km of T338I three-domain Src relative to wild type” value in assay [4] is recorded as “This relationship holds for three-domain Src”. Moreover, the “ATP Km versus substrate-peptide concentration, Hck” value at Hck kinase domain is recorded as “increases with increasing substrate-peptide concentration”.

Consider `CC[C@H](C)[C@H](NC(=O)[C@H](CCC(=O)O)NC(=O)[C@H](CCC(=O)O)NC(=O)[C@H](CCC(=O)O)NC(=O)[C@H](C)N)C(=O)N[C@@H](Cc1ccc(O)cc1)C(=O)NCC(=O)N[C@@H](CCC(=O)O)C(=O)N[C@@H](Cc1ccccc1)C(=O)N[C@@H](C)C(=O)N[C@@H](CCCCN)C(=O)N[C@@H](CCCCN)C(=O)N[C@@H](CCCCN)C(=O)O` [Rs1], for which the Kd on Src kinase domain [2] is 37 ± 7 µM; at Src kinase domain [2] (100 μM ADP, 1 μM fluorescein-labelled peptide, 100 mM Tris, pH 8.0, 10 mM MgCl2, 25 °C, mean ± s.e.m., triplicate, read-out: Kd of substrate peptide at 100 μM ADP), 17 ± 4 µM; on Src kinase domain [2] (1,000 μM ADP, 1 μM fluorescein-labelled peptide, 100 mM Tris, pH 8.0, 10 mM MgCl2, 25 °C, mean ± s.e.m., triplicate, read-out: Kd of substrate peptide at 1,000 μM ADP), 16 ± 2 µM. In addition, the “change of Kd of substrate peptide by AMP-PNP” value at Src kinase domain [2] (1 μM fluorescein-labelled peptide, 100 mM Tris, pH 8.0, 10 mM MgCl2, 25 °C, listed as optimal substrate peptide for Src) is reported as “increase the Kd up to fivefold”; on Src kinase domain [2] (1 μM fluorescein-labelled peptide, 100 mM Tris, pH 8.0, 10 mM MgCl2, 25 °C, listed as substrate peptide), “increases the Kd of substrate peptide fivefold”.

As for AEEMIYGEFAKKK [Rs2], the “cooperativity of peptide and AMP-PNP binding” value at Src kinase domain [2] (setting [5]) is “negative cooperativity independent of their overall affinity”.

On to “GIYWHHY [Rs3, short substrate peptide (GIYWHHY)]”, for which the “cooperativity of peptide and AMP-PNP binding” value at Src kinase domain [2] (setting [5]) is listed as “negative cooperativity independent of their overall affinity”.

The Kd is the concentration at which binding is half-saturated. For orientation: Km means the substrate concentration at which the rate is half of its maximum.
